# According to patent US20050226913A1, “Article for inhibiting microbial growth in physiological fluids” (Eastman Kodak Company, priority 2004, published 2005):
# Experiment: Stability constant (log βn) of ligand with Fe(III)
# Conditions: Fe(III) (target) minus Ca (interfering), from Table 1
# Text: Herein the stability constant for the reaction of a metal-ion (M) and a sequestrant or ligand (L) is defined as follows: M+nL⇄MLn
# where the stability constant is βn=[MLn]/[M][L]^n, wherein [MLn] is the concentration of “complexed” metal-ion, [M] is the concentration of free (uncomplexed) metal-ion and [L] is the concentration of free ligand. The log of the stability constant is log βn, and n is the number of ligands, which coordinate with the metal.
smiles,measurement,value
"O=C(O)CN(CCN(CC(=O)O)CC(=O)O)CCN(CC(=O)O)CC(=O)O [DTPA, diethylenetriaminepentaacetic acid]",selectivity: difference between the log stability constants,17.2
